Where two headings read alike, the source gives them in different places.

One assay deals with MV4;11 cells. Nature of the assay: Cell viability assay (CellTiter-Glo) in MV4;11 cells, alone or with gilteritinib. Type of assay: cell-based. Particulars: MV4;11 cells, three days, CellTiter-Glo, read-out: MV4. Background: ATP-based viability assays read luminescence as a measure of living cells.
Another assay has as its system MOLM-13 cells. Nature of the assay: Cell viability assay (CellTiter-Glo) in MOLM-13 cells, alone or with gilteritinib. It is filed as cell-based. The settings on record: Homo sapiens, MOLM-13, 72 h, MOLM-13 cells, three days, CellTiter-Glo.
[1] abbreviates: Homo sapiens, MV4-11, 72 h, compound alone (without gilteritinib), 11 IC50.
Where [2] appears, read: Homo sapiens, MV4-11, 72 h, with gilteritinib 10 nM, 11 IC50 gilteritinib.
The mark [3] stands for this setting: compound alone (without gilteritinib), read-out: MOLM-13 IC50.
The mark [4] stands for this setting: with gilteritinib 20 nM, read-out: MOLM-13 IC50 gilteritinib.
[5] abbreviates: Homo sapiens, MV4-11, 72 h, compound with gilteritinib 10 nM, 11 IC50 gilteritinib.
Where [6] appears, read: compound with gilteritinib 20 nM, read-out: MOLM-13 IC50 gilteritinib.

Turning to `O=C(CC1CCCC(N2CCC(n3cc(-c4cnc5ccccc5n4)cn3)CC2)C1)NCc1ccc2c(c1)CN(C1CCC(=O)NC1=O)C2=O` (stereo not shown) [GS-086, N-((2-(2,6-dioxopiperidin-3-yl)-1-oxoisoindolin-5-yl)methyl)-2-(3-(4-(4-(quinoxalin-2-yl)-1H-pyrazol-1-yl)piperidin-1-yl)cyclohexyl)acetamide], the IC50 is above 1000 nM in the assay with MV4;11 cells (setting [1]), 100 to 1000 nM with MV4;11 cells (setting [2]), above 1000 nM in the assay with MOLM-13 cells (setting [3]) and above 1000 nM in the assay on MOLM-13 cells (setting [4]).
For the compound `O=C1CCC(N2Cc3c(Nc4ccnc(Nc5ccc(N6CCC(n7cc(-c8cnc9ccccc9n8)cn7)CC6)cc5)n4)cccc3C2=O)C(=O)N1` (stereo not shown) [GS-027, 3-(1-Oxo-4-((2-((4-(4-(4-(quinoxalin-2-yl)-1H-pyrazol-1-yl)piperidin-1-yl)phenyl)amino)pyrimidin-4-yl)amino)isoindolin-2-yl)piperidine-2,6-dione], the IC50 in the assay on MV4;11 cells (setting [1]) is above 1000 nM; in the assay on MV4;11 cells (setting [2]), above 1000 nM; in the assay on MOLM-13 cells (setting [3]), 100 to 1000 nM; in the assay with MOLM-13 cells (setting [4]) it was above 1000 nM.
Take `CNc1ccc(-c2cn([C@H]3C[C@H](CNc4ccc5c(c4)C(=O)N(C4CCC(=O)NC4=O)C5=O)C3)nc2C2CC2)nc1` (stereo partly drawn) [GS-301, 5-(((trans-3-(3-Cyclopropyl-4-(5-(methylamino)pyridin-2-yl)-1H-pyrazol-1-yl)cyclobutyl)methyl)amino)-2-(2,6-dioxopiperidin-3-yl)isoindoline-1,3-dione]: the IC50 with MV4;11 cells (setting [1]) is above 1000 nM; with MV4;11 cells (setting [2]) it was 100 to 1000 nM; in the assay with MOLM-13 cells (setting [3]), above 1000 nM; in the assay with MOLM-13 cells (setting [4]), 100 to 1000 nM.
As for `Cc1cn(CCCCCCNc2ccc3c(c2)C(=O)N(C2CCC(=O)NC2=O)C3=O)nc1-c1cnc2ccccc2n1` (stereo not shown) [GS-546, 2-(2,6-Dioxopiperidin-3-yl)-5-((6-(4-methyl-3-(quinoxalin-2-yl)-TH-pyrazol-1-yl)hexyl)amino)isoindoline-1,3-dione], the IC50 was above 1000 nM in the assay on MV4;11 cells (setting [1]), 100 to 1000 nM in the assay on MV4;11 cells (setting [5]), above 1000 nM in the assay with MOLM-13 cells (setting [3]) and 10 to 100 nM in the assay with MOLM-13 cells (setting [6]).
For `O=C1CCC(N2Cc3c(NC4CCCC(CCCn5cc(-c6cnc7ccccc7n6)cn5)C4)cccc3C2=O)C(=O)N1` (stereo not shown) [GS-157], the IC50 with MV4;11 cells (setting [1]), in the assay on MV4;11 cells (setting [2]), with MOLM-13 cells (setting [3]) and in the assay with MOLM-13 cells (setting [4]) was above 1000 nM each time.
`CN1CCN(c2cccc(-c3cnn([C@H]4C[C@H](CCCNc5ccc6c(c5)C(=O)N(C5CCC(=O)NC5=O)C6=O)C4)c3)n2)CC1` (stereo partly drawn) [GS-245, 2-(2,6-Dioxopiperidin-3-yl)-5-((3-(trans-3-(4-(6-(4-methylpiperazin-1-yl)pyridin-2-yl)-1H-pyrazol-1-yl)cyclobutyl)propyl)amino)isoindoline-1,3-dione]: the IC50 in the assay on MV4;11 cells (setting [2]) was 10 to 100 nM; with MV4;11 cells (compound alone (without gilteritinib), 11 IC50), above 1000 nM; in the assay on MOLM-13 cells (setting [3]), above 1000 nM; with MOLM-13 cells (setting [4]), 100 to 1000 nM.
On to `O=C1CCC(N2C(=O)c3ccc(NCCCCCCn4cc(-c5cnc6cccc(N7CCNCC7)c6n5)cn4)cc3C2=O)C(=O)N1` (stereo not shown) [GS-384, 2-(2,6-Dioxopiperidin-3-yl)-5-((6-(4-(8-(piperazin-1-yl)quinoxalin-2-yl)-1H-pyrazol-1-yl)hexyl)amino)isoindoline-1,3-dione], for which the IC50 in the assay with MV4;11 cells (setting [1]), with MV4;11 cells (setting [2]), in the assay on MOLM-13 cells (setting [3]) and with MOLM-13 cells (setting [4]) was above 1000 nM each time.
For `O=C1CCC(N2C(=O)c3ccc(NCCCCCC(=O)N4CCC(n5cc(N6CCOCC6)cn5)CC4)cc3C2=O)C(=O)N1` (stereo not shown) [GS-047, 2-(2,6-Dioxopiperidin-3-yl)-5-((6-(4-(4-morpholino-1H-pyrazol-1-yl)piperidin-1-yl)-6-oxohexyl)amino)isoindoline-1,3-dione], the IC50 with MV4;11 cells (setting [1]) lay in the range of 100 to 1000 nM; with MV4;11 cells (setting [2]) it was 10 to 100 nM; in the assay on MOLM-13 cells (setting [3]) it was 100 to 1000 nM; with MOLM-13 cells (setting [4]), 10 to 100 nM.
With `O=C1CCC(N2C(=O)c3ccc(NCCCN4CCC(N5CCN(c6ccccn6)CC5)C4)cc3C2=O)C(=O)N1` (stereo not shown) [GS-344, 2-(2,6-Dioxopiperidin-3-yl)-5-((3-(3-(4-(pyridin-2-yl)piperazin-1-yl)pyrrolidin-1-yl)propyl)amino)isoindoline-1,3-dione], the IC50 in the assay on MV4;11 cells (setting [1]), with MV4;11 cells (setting [2]), in the assay on MOLM-13 cells (setting [3]) and with MOLM-13 cells (setting [4]) was above 1000 nM each time.
`CC(CCCCCCc1ccc2c(c1)C(=O)N(C1CCC(=O)NC1=O)C2)n1cc(-c2cnc3ccccc3n2)cn1` (stereo not shown) [GS-127, 3-(1-Oxo-6-(7-(4-(quinoxalin-2-yl)-1H-pyrazol-1-yl)octyl)isoindolin-2-yl)piperidine-2,6-dione]: the IC50 with MV4;11 cells (setting [1]) is above 1000 nM; with MV4;11 cells (setting [2]) it was 100 to 1000 nM; with MOLM-13 cells (setting [3]), above 1000 nM; in the assay with MOLM-13 cells (setting [4]) it was 100 to 1000 nM.
Consider `CN1CCC(c2ccc3nc(-c4cnn([C@H]5C[C@H](CCCNc6ccc7c(c6)C(=O)N(C6CCC(=O)NC6=O)C7=O)C5)c4)cnc3c2)CC1` (stereo partly drawn) [GS-419, 2-(2,6-dioxopiperidin-3-yl)-5-((3-(trans-3-(4-(6-(1-methylpiperidin-4-yl)quinoxalin-2-yl)-1H-pyrazol-1-yl)cyclobutyl)propyl)amino)isoindoline-1,3-dione], for which the IC50 in the assay with MV4;11 cells (setting [1]) was 10 to 100 nM; in the assay with MV4;11 cells (setting [5]), 10 to 100 nM; in the assay on MOLM-13 cells (setting [3]) it was 10 to 100 nM; in the assay on MOLM-13 cells (setting [6]) it was below 10 nM.
Consider `O=C1CCC(N2C(=O)c3ccc(NCCCCCC(=O)N4CCC(n5cc(-c6cnc7cccc(N8CCOCC8)c7n6)cn5)CC4)cc3C2=O)C(=O)N1` (stereo not shown) [GS-034, 2-(2,6-Dioxopiperidin-3-yl)-5-((6-(4-(4-(8-morpholinoquinoxalin-2-yl)-1H-pyrazol-1-yl)piperidin-1-yl)-6-oxohexyl)amino)isoindoline-1,3-dione], for which the IC50 in the assay with MV4;11 cells (setting [1]) is 100 to 1000 nM; in the assay on MV4;11 cells (setting [2]), below 10 nM; in the assay on MOLM-13 cells (setting [3]) it was above 1000 nM; in the assay with MOLM-13 cells (setting [4]), below 10 nM.
For the compound `O=C1CCC(N2C(=O)c3ccc(NC[C@H]4C[C@H](n5cc(-c6cccc(N[C@H]7CC[C@@H](O)CC7)n6)c(C6CC6)n5)C4)cc3C2=O)C(=O)N1` (stereo partly drawn) [GS-445, 5-(((trans-3-(3-cyclopropyl-4-(6-((cis-4-hydroxycyclohexyl)amino)pyridin-2-yl)-1H-pyrazol-1-yl)cyclobutyl)methyl)amino)-2-(2,6-dioxopiperidin-3-yl)isoindoline-1,3-dione], the IC50 with MV4;11 cells (setting [1]), in the assay on MV4;11 cells (setting [5]), with MOLM-13 cells (setting [3]) and with MOLM-13 cells (setting [6]) was 100 to 1000 nM in each case.
For the compound `O=C1CCC(N2C(=O)c3ccc(NCCCCCCn4cc(-c5cnc6ccc(C7CC7)cc6n5)cn4)cc3C2=O)C(=O)N1` (stereo not shown) [GS-562, 5-((6-(4-(7-Cyclopropylquinoxalin-2-yl)-1H-pyrazol-1-yl)hexyl)amino)-2-(2,6-dioxopiperidin-3-yl)isoindoline-1,3-dione], the IC50 was 10 to 100 nM in the assay with MV4;11 cells (setting [1]), 10 to 100 nM in the assay with MV4;11 cells (setting [5]), 10 to 100 nM with MOLM-13 cells (setting [3]) and below 10 nM in the assay on MOLM-13 cells (setting [6]).
Regarding `O=C1CCC(N2C(=O)c3ccc(NCCC[C@H]4C[C@H](n5cc(-c6cnc7ccc(N8C[C@H]9C[C@@H]8CN9)cc7n6)cn5)C4)cc3C2=O)C(=O)N1` (stereo partly drawn) [GS-415, 5-((3-(trans-3-(4-(7-((1R,4R)-2,5-diazabicyclo[2.2.1]heptan-2-yl)quinoxalin-2-yl)-1H-pyrazol-1-yl)cyclobutyl)propyl)amino)-2-(2,6-dioxopiperidin-3-yl)isoindoline-1,3-dione], the IC50 with MV4;11 cells (setting [1]), in the assay with MV4;11 cells (setting [5]), in the assay on MOLM-13 cells (setting [3]) and in the assay with MOLM-13 cells (setting [6]) was above 1000 nM throughout.
For the compound `COc1ccnc(-c2cnn([C@H]3C[C@H](CCCNc4ccc5c(c4)C(=O)N(C4CCC(=O)NC4=O)C5=O)C3)c2)c1` (stereo partly drawn) [GS-341, 2-(2,6-Dioxopiperidin-3-yl)-5-((3-(trans-3-(4-(4-methoxypyridin-2-yl)-1H-pyrazol-1-yl)cyclobutyl)propyl)amino)isoindoline-1,3-dione], the IC50 with MV4;11 cells (setting [1]) is 10 to 100 nM; in the assay with MV4;11 cells (setting [2]) it was below 10 nM; in the assay with MOLM-13 cells (setting [3]) it was 100 to 1000 nM; in the assay on MOLM-13 cells (setting [4]), 10 to 100 nM.
As to `O=C1CCC(N2C(=O)c3ccc(NCCC[C@H]4C[C@H](n5cc(-c6cnc7ccc(N8CCN(C9CCC9)CC8)cc7n6)cn5)C4)cc3C2=O)C(=O)N1` (stereo partly drawn) [GS-580, 5-((3-(trans-3-(4-(7-(4-Cyclobutylpiperazin-1-yl)quinoxalin-2-yl)-1H-pyrazol-1-yl)cyclobutyl)propyl)amino)-2-(2,6-dioxopiperidin-3-yl)isoindoline-1,3-dione], the IC50 in the assay with MV4;11 cells (setting [1]) is 10 to 100 nM; in the assay with MV4;11 cells (setting [5]), below 10 nM; in the assay with MOLM-13 cells (setting [3]), 10 to 100 nM; in the assay on MOLM-13 cells (setting [6]) it was below 10 nM.
With `Cc1nn(CCCCCCNc2ccc3c(c2)C(=O)N(C2CCC(=O)NC2=O)C3=O)c(C)c1-c1ccc2ccccc2n1` (stereo not shown) [GS-549, 5-((6-(3,5-Dimethyl-4-(quinolin-2-yl)-1H-pyrazol-1-yl)hexyl)amino)-2-(2,6-dioxopiperidin-3-yl)isoindoline-1,3-dione], the IC50 in the assay on MV4;11 cells (setting [1]) is 100 to 1000 nM; in the assay with MV4;11 cells (setting [5]), 10 to 100 nM; with MOLM-13 cells (setting [3]) it was 100 to 1000 nM; in the assay on MOLM-13 cells (setting [6]), below 10 nM.
Regarding `O=C1CCC(N2C(=O)c3ccc(NCCCCCCn4cc(-c5cnc6ccc(N7CCNCC7)cc6n5)cn4)cc3C2=O)C(=O)N1` (stereo not shown) [GS-532, 2-(2,6-Dioxopiperidin-3-yl)-5-((6-(4-(7-(piperazin-1-yl)quinoxalin-2-yl)-1H-pyrazol-1-yl)hexyl)amino)isoindoline-1,3-dione], the IC50 is 10 to 100 nM in the assay on MV4;11 cells (setting [1]), below 10 nM in the assay with MV4;11 cells (setting [5]), 100 to 1000 nM in the assay with MOLM-13 cells (setting [3]) and below 10 nM in the assay with MOLM-13 cells (setting [6]).
